The values below are quoted from earlier work in patent US20020046426A1, “Application of carbonyl compounds in the process of tanning hides” (RHODIA BRASIL LTDA., priority 1999, published 2002).

The test system of one series is mice. To be noted: mouse, in vivo, po.

In the case of `CC(O)CC=O` (centres unmarked) [aldol, 3-hydroxyl butanal], the 50% lethal dose (LD50) (commonly the dose expected to kill half of the subjects tested) with mice is given as 2180 mg/kg.
Turning to `C/C=C/C=O` [crotonaldehyde, 2-butenal], in the series with eyes, the “irritation to the eyes” value was “extremely irritant to the eyes”.
